Counter-ions that a name gives are not always drawn.
Key:
[1] = system: angiotensin-converting enzyme (ACE); experiment: ACE inhibitory effect in normotensive rats (inhibition of pressor response to angiotensin I); assay type: in vivo; details: 1 mg/kg directly to the stomach, male Wistar rats, urethane anesthesia, AI/AII ratio
Procedure: ACE Inhibitory effect in normotensive rats
Male Wistar rats weighing 200 to 400 g were anesthetized by the intraperitoneal injection of urethane (1.25 g/kg) and held in the supine position. The degree of inhibition of pressor response to angiotensin (A) I was determined using these rats. The blood pressure was measured with a femoral artery cannula connected to a transducer (product of Nihon Kohden Kabushiki Kaisha, Japan, Model MPU-0.5-290-0-III) and recorded in terms of a mean blood pressure value through a carrier amplifier (product of Nihon Kohden Kabushiki Kaisha, Japan, Model RP-5) on a multipurpose polygraph (product of Nihon Kohden Kabushiki Kaisha, Japan, Model RM-85). The rats were set in an experimental device and left therein for 1 hour to stabilize the hemodynamics. Then experiments were commenced. Since the magnitude of the pressor response to AI varies with time, the ratio of the responses to AI and AII (AI/AII ratio) was used to determine the magnitude of the pressor response to AI which ratio remained more constant. Through the cannulated femoral vein, AI (300 ng/kg) was administered first and AII (300 ng/kg) was given in 5 minutes to measure an AI/AII ratio. At 30 minutes after the first administration of AI, AI (300 ng/kg) was similarly administered and AII (300 ng/kg) was given in 5 minutes, followed by measuring an AI/AII ratio. This procedure was repeated until a constant value of AI/AII ratio was obtained. (The mean value of AI/AII ratios each resulting from the repeated procedure is represented as "C" in an equation to be shown later). At 10 minutes after the final administration of AII, an aqueous solution containing 1 mg/kg of each test compound was given directly to the stomach through a vinyl tube. At 10 minutes after administration of the test compound, AI (300 ng/kg) was given and at 5 minutes later, AII (300 ng/kg) was administered, followed by measurement of the AI/AII ratio (which was represented as "E" in the following equation). An ACE percent inhibition was calculated according to the equation indicated below. [formula]
Subsequently at each time of 60, 120 and 240 minutes after the administration of the test compound, AI (300 ng/kg) was given in the same manner as above and AII (300 ng/kg) was administered in 5 minutes, whereupon an ACE percent inhibition was calculated in the same way.
The results are shown below in Table 26 in which the test compounds listed are those prepared in the Examples indicated therein.

[2] = target: T1, angiotensin-converting enzyme (ACE) (Oryctolagus cuniculus, UniProt P12822); experiment: Inhibitory activity against angiotensin-converting enzyme (ACE); assay type: biochemical, rabbit; details: for IC50: enzyme from rabbit lung acetone powder, substrate hippurylhistidyl-leucine, 37° C.
T1 construct: enzyme solution prepared from rabbit lung acetone powder; tissue Sigma Chemical Co., Ltd., U.S.A; host or cells: rabbit lung (acetone powder)
T1 sequence (P12822 34-1310): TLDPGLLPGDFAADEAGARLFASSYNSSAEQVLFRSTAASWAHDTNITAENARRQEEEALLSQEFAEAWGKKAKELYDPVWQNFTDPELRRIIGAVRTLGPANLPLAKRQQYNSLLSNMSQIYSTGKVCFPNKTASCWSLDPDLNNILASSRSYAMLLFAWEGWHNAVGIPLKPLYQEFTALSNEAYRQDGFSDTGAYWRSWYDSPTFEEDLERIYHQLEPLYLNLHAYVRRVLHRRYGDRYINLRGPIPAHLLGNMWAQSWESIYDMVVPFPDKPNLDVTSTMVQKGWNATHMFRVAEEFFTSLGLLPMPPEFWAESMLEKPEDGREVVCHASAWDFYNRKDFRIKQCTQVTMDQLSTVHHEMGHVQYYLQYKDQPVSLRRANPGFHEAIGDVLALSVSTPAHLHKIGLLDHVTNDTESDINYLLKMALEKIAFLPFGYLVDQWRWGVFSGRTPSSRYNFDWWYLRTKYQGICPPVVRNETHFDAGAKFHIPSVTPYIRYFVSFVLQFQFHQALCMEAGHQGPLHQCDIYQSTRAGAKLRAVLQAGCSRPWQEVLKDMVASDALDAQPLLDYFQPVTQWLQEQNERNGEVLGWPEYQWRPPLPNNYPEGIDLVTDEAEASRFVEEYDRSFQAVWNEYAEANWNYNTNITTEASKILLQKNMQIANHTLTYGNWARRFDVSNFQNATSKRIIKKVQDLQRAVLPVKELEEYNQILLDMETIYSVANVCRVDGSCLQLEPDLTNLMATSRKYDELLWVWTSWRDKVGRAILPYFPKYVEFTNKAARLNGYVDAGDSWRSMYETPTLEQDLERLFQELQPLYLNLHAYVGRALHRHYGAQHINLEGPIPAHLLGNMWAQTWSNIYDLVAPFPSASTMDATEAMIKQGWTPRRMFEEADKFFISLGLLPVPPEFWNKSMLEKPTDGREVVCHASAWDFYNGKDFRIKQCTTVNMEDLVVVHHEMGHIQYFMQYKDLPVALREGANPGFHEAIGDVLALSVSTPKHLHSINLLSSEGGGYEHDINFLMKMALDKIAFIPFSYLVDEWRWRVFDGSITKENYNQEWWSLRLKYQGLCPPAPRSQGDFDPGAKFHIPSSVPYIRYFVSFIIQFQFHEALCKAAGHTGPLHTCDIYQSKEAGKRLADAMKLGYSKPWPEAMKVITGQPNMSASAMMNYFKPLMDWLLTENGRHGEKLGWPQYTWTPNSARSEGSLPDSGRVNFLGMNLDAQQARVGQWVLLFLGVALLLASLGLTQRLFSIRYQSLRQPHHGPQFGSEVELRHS
Procedure: Inhibitory activity against angiotensin-converting enzyme (ACE)
A 100 μl quantity of an enzyme solution prepared from rabbit lung acetone powder (product of Sigma Chemical Co., Ltd., U.S.A.) was mixed with 100 μl of a sample solution. The mixture was gently shaken at 37° C. for 10 minutes. To the reaction mixture was added 100 μl of a solution containing 6.99 mM of hippurylhistidyl-leucine (product of Peptide Institute, Inc., Japan) as a substrate. The mixture was reacted at 37° C. for 45 minutes while being shaken. The reaction was terminated by addition of 200 μl of a 1N sulfuric acid aqueous solution to the reaction mixture. Sodium chloride (saturation amount) and diethyl ether (2 ml) were added to the reaction mixture to extract the hippuric acid formed by the reaction. The resulting mixture was vigorously shaken for 15 minutes and centrifuged at 2000 rpm for 5 minutes. A 1.5 ml quantity of the ether layer was separated. After the solvent was distilled off, the residue was redissolved in 1.5 ml of distilled water and the absorbance at 228 nm was measured. A control was prepared by repeating the same procedure as above except that 100 μl of distilled water was used in place of the sample solution.
The inhibitory activity was calculated by deducting the absorbance value of the residue formed by addition of the sample solution from that of the control, and the resulting value was divided by the absorbance value of the control and multiplied by 100, thereby giving a percent inhibition. The inhibitory activity was expressed as IC50, i.e., the concentration of the sample solution in the reaction mixture in which concentration 50% inhibition is achieved.
The test compounds used in the experiment are shown below.

[3] = 15 min. after administration, 1 mg/kg
[4] = 60 min. after administration, 1 mg/kg
[5] = 120 min. after administration, 1 mg/kg
[6] = 240 min. after administration, 1 mg/kg

Row | SMILES | ACE Percent Inhibition, mean ± SD ([1]; 15 min. after administration) [%] | ACE Percent Inhibition, mean ± SD ([1]; 60 min. after administration) [%] | ACE Percent Inhibition, mean ± SD ([1]; 120 min. after administration) [%] | ACE Percent Inhibition, mean ± SD ([1]; 240 min. after administration) [%] | other results
1 | CCCCCC(SC[C@H](NC(C)C(=O)N1CCC[C@H]1C(=O)O)C(=O)OCC)C(=O)OCC (stereo partly drawn) [Ex. No. 67*^1] | – | – | – | – | ACE Percent Inhibition, mean ± SD [1, 3]: 23 ± 35%; ACE Percent Inhibition, mean ± SD ([1]; 15 min. after administration, listed as Ex. No. 67*^2, 1 mg/kg): 46 ± 29%; ACE Percent Inhibition, mean ± SD [1, 4]: 55 ± 11%; ACE Percent Inhibition, mean ± SD ([1]; 60 min. after administration, listed as Ex. No. 67*^2, 1 mg/kg): 76 ± 10%; ACE Percent Inhibition, mean ± SD [1, 5]: 59 ± 4%; ACE Percent Inhibition, mean ± SD ([1]; 120 min. after administration, listed as Ex. No. 67*^2, 1 mg/kg): 61 ± 14%; ACE Percent Inhibition, mean ± SD [1, 6]: 63 ± 9%; ACE Percent Inhibition, mean ± SD ([1]; 240 min. after administration, listed as Ex. No. 67*^2, 1 mg/kg): 65 ± 7%
2 | CCOC(=O)[C@H](CSCC1CCCCC1)NC(C)C(=O)N1CCC[C@H]1C(=O)O (stereo partly drawn) [Example 21] | 22 ± 25 | 38 ± 29 | 58 ± 15 | 56 ± 14 | –
3 | CCCCCCCSC[C@H](NC(C)C(=O)N1CCC[C@H]1C(=O)OC)C(=O)OCC (stereo partly drawn) [Example 39] | 39 ± 59 | 79 ± 30 | 76 ± 5 | 88 ± 3 | –
4 | CSCC[C@H](NC(C)C(=O)N1CCC[C@H]1C(=O)O)C(=O)O (stereo partly drawn) [Test Compound 4, N--[(S)--1-carboxy-3-methylthiopropyl]-(R,S)--alanyl-(S)--proline, reference compound] | – | – | – | – | IC50 [2]: 12.7 nM
5 | CCCCCCC(SC[C@H](NC(C)C(=O)N1CCC[C@H]1C(=O)O)C(=O)OCC)C(=O)OCC (stereo partly drawn) [Ex. No. 71*^4] | – | – | – | – | ACE Percent Inhibition, mean ± SD [1, 3]: 47 ± 24%; ACE Percent Inhibition, mean ± SD [1, 4]: 69 ± 6%; ACE Percent Inhibition, mean ± SD [1, 5]: 70 ± 10%; ACE Percent Inhibition, mean ± SD [1, 6]: 60 ± 10%
6 | CCOC(=O)[C@H](CSCC=C(C)C)NC(C)C(=O)N1CCC[C@H]1C(=O)O (stereo partly drawn) [Example 32] | 15 ± 9 | 31 ± 7 | 33 ± 9 | 29 ± 8 | –
7 | CCCCCCCCSC[C@H](NC(C)C(=O)N1CCC[C@H]1C(=O)O)C(=O)OCC (stereo partly drawn) [Example 81, N-[(R)-1-ethoxycarbonyl-2-octylthio-ethyl]-alanyl-(S)-proline (β-isomer).L-arginine salt] | 14 ± 17 | 43 ± 18 | 47 ± 11 | 55 ± 6 | –
8 | CCCCCCSC[C@H](NC(C)C(=O)N1CCC[C@H]1C(=O)O)C(=O)OCC (stereo partly drawn) [Example 5, N-[(R)-1-ethoxycarbonyl-2-hexylthioethyl]-alanyl-(S)-proline(β-isomer) and L-arginine salt thereof] | 28 ± 14 | 54 ± 3 | 54 ± 17 | 55 ± 7 | –
9 | CCCCCCC(SC[C@H](NC(C)C(=O)N1CCC[C@H]1C(=O)O)C(=O)OCC)C(=O)OCC (stereo partly drawn) [Ex. No. 71*^ 3] | – | – | – | – | ACE Percent Inhibition, mean ± SD [1, 3]: 39 ± 34%; ACE Percent Inhibition, mean ± SD [1, 4]: 65 ± 14%; ACE Percent Inhibition, mean ± SD [1, 5]: 60 ± 2%; ACE Percent Inhibition, mean ± SD [1, 6]: 67 ± 3%
10 | CCCCCSC[C@H](NC(C)C(=O)N1CCC[C@H]1C(=O)O)C(=O)O (stereo partly drawn) [Test Compound 3, N--[(R)--1-carboxy-2-pentylthioethyl]-alanyl-(S)--proline (β-isomer)] | – | – | – | – | ACE inhibitory activity higher than Test Compound No. 4 (fold) ([2]; compared with Test Compound No. 4): about 122 times; IC50 [2]: 0.104 nM
11 | CCCCCCCSC[C@H](NC(C)C(=O)N1CCC[C@H]1C(=O)O)C(=O)OCC (stereo partly drawn) [Example 18, N-[(R)-1-ethoxycarbonyl-2-heptylthioethyl]-alanyl-(S)-proline (β-isomer) and maleate] | 77 ± 8 | 75 ± 23 | 84 ± 10 | 63 ± 6 | –
12 | CCCCCCCSC[C@H](NC(C)C(=O)N1CCC[C@H]1C(=O)OCC)C(=O)OCC (stereo partly drawn) [Example 40] | 37 ± 19 | 55 ± 18 | 57 ± 13 | 70 ± 9 | –
13 | CCCCCCCSC[C@H](NC(C)C(=O)N1CCC[C@H]1C(=O)OCc1ccccc1)C(=O)OCC (stereo partly drawn) [Example 42] | 27 ± 1 | 17 ± 18 | 57 ± 7 | 66 ± 7 | –

From US4642355A, “Proline derivatives” (Otsuka Pharmaceutical Factory, Inc., priority 1984, dated 1987)
